Measurements: US20150119394A1, “Insulin-Like Growth Factor-1 Receptor Inhibitors” (Merck Sharp & Dohme Corp., priority 2012, published 2015)

Target: T1, intracellular kinase domain of human IGF-1R (GST fusion protein) (Homo sapiens, UniProt P08069)
T1 construct: IGFRK and IRK enzyme used for the assay was intracellular kinase domain of human IGF-1R; GST; made in house
Assay: In vitro IGF-1R kinase assay (HTRF)
Format: biochemical
Settings: ATP 20 μM, IGFRK 0.25 nM
Procedure: The in vitro kinase assays using IGF-1R and IR kinase GST fusion proteins were conducted using a homogeneous time-resolved fluorescence (HTRF) format. Kinase reactions were carried out in a 384-well plate format in a final volume of 20 μL. The standard enzyme reaction buffer consisted of 50 mM Tris HCL (pH: 7.4), 1 mM EGTA, 10 mM MgCl2, 2 mM DTT, 0.01% Tween-20, IGF-1R/IR kinase enzyme, poly GT peptide substrate (Perkin Elmer [Ulight Glu-Tyr (4:1)]n) and ATP [concentration equivalent to Kmapp] […] Briefly, 2.5 μL enzyme and 2.5 μL inhibitor was preincubated for 10 minutes at 23° C. followed by the addition of 2.5 μL of poly GT substrate (final concentration of 50 nM). Reaction was initiated with the addition of 2.5 μL of ATP (final concentration of 20 μM for IGF-1R assay and 10 μM for IR assay). After 1 hour incubation at 23° C., the kinase reaction was stopped with the addition of 5 μL EDTA (final concentration of 10 mM in 20 μL). Europium cryptate—labeled antiphosphotyrosine antibody PY20 (5 μL) was added (final concentration of 2 nM) and the mixture was allowed to equilibrate for 1 hour at 23° C. followed by reading the plate in an Envision plate reader.
The intensity of light emission at 665 nm was directly proportional to the level of substrate phosphorylation. The IC50 values for inhibitors were determined by a four-parameter sigmoidal curve fit (Sigma plot or Graph pad).
IGFRK and IRK enzyme used for the assay was intracellular kinase domain of human IGF-1R and human IR cloned and expressed as GST fusion proteins using the baculovirus expression system and purified using glutathione—Sepharose column.

T1 sequence (P08069 999-1274 limits assumed): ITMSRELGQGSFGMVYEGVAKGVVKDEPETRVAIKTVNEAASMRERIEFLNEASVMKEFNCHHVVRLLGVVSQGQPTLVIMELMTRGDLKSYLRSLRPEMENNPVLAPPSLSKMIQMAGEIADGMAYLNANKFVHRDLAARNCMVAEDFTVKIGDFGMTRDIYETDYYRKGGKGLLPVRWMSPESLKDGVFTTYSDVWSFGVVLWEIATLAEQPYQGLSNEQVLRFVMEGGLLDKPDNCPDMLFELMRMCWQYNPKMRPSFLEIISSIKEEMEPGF

Row | SMILES | IC50
1 | NC(=O)c1[nH]c2ccc(Cl)cc2c1S(=O)(=O)N1CCO[C@H](COc2cccc(-c3ccncc3)c2)C1 [Compound 2, (S)-5-chloro-3-((2-((3-(pyridin-4-yl)phenoxy)methyl)morpholino)sulfonyl)-1H-indole-2-carboxamide] | 8.5 nM
2 | Cc1ccc(-c2cccc(OC[C@@H]3CN(S(=O)(=O)c4c(C(N)=O)[nH]c5ccc(Cl)cc45)CCO3)c2)cn1 [Compound 4, (S)-5-chloro-3-((2-((3-(6-methylpyridin-3-yl)phenoxy)methyl)morpholino)sulfonyl)-1H-indole-2-carboxamide] | 11.8 nM
3 | CN(C)c1ccc(-c2cccc(OC[C@@H]3CN(S(=O)(=O)c4c(C(N)=O)[nH]c5ccc(Cl)cc45)CCO3)c2)cn1 [Compound 5, (S)-5-chloro-3-((2-((3-(6-(dimethylamino)pyridin-3-yl)phenoxy)methyl)morpholino)sulfonyl)-1H-indole-2-carboxamide] | 30.4 nM
4 | NC(=O)c1[nH]c2ccc(Cl)cc2c1S(=O)(=O)N1CCO[C@H](COc2cccc(-c3ccc(C(F)(F)F)nc3)c2)C1 [Compound 6, (S)-5-chloro-3-((2-((3-(6-(trifluoromethyl)pyridin-3-yl)phenoxy)methyl)morpholino)sulfonyl)-1H-indole-2-carboxamide] | 65 nM
5 | NC(=O)c1[nH]c2ccc(Cl)cc2c1S(=O)(=O)N1CCO[C@H](COc2cccc(-c3ccc(F)nc3)c2)C1 [Compound 8, (S)-5-chloro-3-((2-((3-(6-fluoropyridin-3-yl)phenoxy)methyl)morpholino)sulfonyl)-1H-indole-2-carboxamide] | 15.5 nM
6 | Cc1ccccc1-c1cccc(OC[C@@H]2CN(S(=O)(=O)c3c(C(N)=O)[nH]c4ccc(Cl)cc34)CCO2)c1 [Compound 10, (S)-5-chloro-3-((2-(((2′-methyl-[1,1′-biphenyl]-3-yl)oxy)methyl)morpholino)sulfonyl)-1H-indole-2-carboxamide] | 199 nM
7 | NC(=O)c1[nH]c2ccc(Cl)cc2c1S(=O)(=O)N1CCO[C@H](COc2cccc(-c3ccc(F)cc3)c2)C1 [Compound 11, (S)-5-chloro-3-((2-(((4′-fluoro-[1,1′-biphenyl]-3-yl)oxy)methyl)morpholino)sulfonyl)-1H-indole-2-carboxamide] | 15.4 nM
8 | NC(=O)c1[nH]c2ccc(Cl)cc2c1S(=O)(=O)N1CCO[C@H](COc2cccc(-c3cccc(F)c3)c2)C1 [Compound 12, (S)-5-chloro-3-((2-(((3′-fluoro-[1,1′-biphenyl]-3-yl)oxy)methyl)morpholino)sulfonyl)-1H-indole-2-carboxamide] | > 100 nM
9 | NC(=O)c1[nH]c2ccc(Cl)cc2c1S(=O)(=O)N1CCO[C@H](COc2cccc(-c3ccnc(F)c3)c2)C1 [Compound 13, (S)-5-chloro-3-((2-((3-(2-fluoropyridin-4-yl)phenoxy)methyl)morpholino)sulfonyl)-1H-indole-2-carboxamide] | 3.4 nM
10 | Cc1cccc(-c2cccc(OC[C@@H]3CN(S(=O)(=O)c4c(C(N)=O)[nH]c5ccc(Cl)cc45)CCO3)c2)c1 [Compound 14, (S)-5-chloro-3-((2-(((3′-methyl-[1,1′-biphenyl]-3-yl)oxy)methyl)morpholino)sulfonyl)-1H-indole-2-carboxamide] | > 100 nM
11 | NC(=O)c1[nH]c2ccc(Cl)cc2c1S(=O)(=O)N1CCO[C@H](COc2cccc(-c3ccccn3)c2)C1 [Compound 15, (S)-5-chloro-3-((2-((3-(pyridin-2-yl)phenoxy)methyl)morpholino)sulfonyl)-1H-indole-2-carboxamide] | 3.7 nM
12 | COc1ncc(-c2cccc(OC[C@@H]3CN(S(=O)(=O)c4c(C(N)=O)[nH]c5ccc(Cl)cc45)CCO3)c2)cn1 [Compound 16, (S)-5-chloro-3-((2-((3-(2-methoxypyrimidin-5-yl)phenoxy)methyl)morpholino)sulfonyl)-1H-indole-2-carboxamide] | 2 nM
13 | COc1cc(-c2cccc(OC[C@@H]3CN(S(=O)(=O)c4c(C(N)=O)[nH]c5ccc(Cl)cc45)CCO3)c2)ccn1 [Compound 18, (S)-5-chloro-3-((2-((3-(2-methoxypyridin-4-yl)phenoxy)methyl)morpholino)sulfonyl)-1H-indole-2-carboxamide] | 7.3 nM
14 | Cc1cc(-c2cccc(OC[C@@H]3CN(S(=O)(=O)c4c(C(N)=O)[nH]c5ccc(Cl)cc45)CCO3)c2)ccn1 [Compound 19, (S)-5-chloro-3-((2-((3-(2-methylpyridin-4-yl)phenoxy)methyl)morpholino)sulfonyl)-1H-indole-2-carboxamide] | 2.9 nM
15 | Cc1ccc(OC[C@@H]2CN(S(=O)(=O)c3c(C(N)=O)[nH]c4ccc(Cl)cc34)CCO2)cc1-c1ccccc1F [Compound 21, (S)-5-chloro-3-((2-(((2′-fluoro-6-methyl-[1,1′-biphenyl]-3-yl)oxy)methyl)morpholino)sulfonyl)-1H-indole-2-carboxamide] | 184 nM
16 | Cc1ccc(OC[C@@H]2CN(S(=O)(=O)c3c(C(N)=O)[nH]c4ccc(Cl)cc34)CCO2)cc1-c1cccnc1F [Compound 22, (S)-5-chloro-3-((2-((3-(2-fluoropyridin-3-yl)-4-methylphenoxy)methyl)morpholino)sulfonyl)-1H-indole-2-carboxamide] | 42.5 nM
17 | COc1ccccc1-c1cc(OC[C@@H]2CN(S(=O)(=O)c3c(C(N)=O)[nH]c4ccc(Cl)cc34)CCO2)ccc1C [Compound 23, (S)-5-chloro-3-((2-(((2′-methoxy-6-methyl-[1,1′-biphenyl]-3-yl)oxy)methyl)morpholino)sulfonyl)-1H-indole-2-carboxamide] | 132 nM
18 | Cc1ccccc1-c1cc(OC[C@@H]2CN(S(=O)(=O)c3c(C(N)=O)[nH]c4ccc(Cl)cc34)CCO2)ccc1C [Compound 24, (S)-5-chloro-3-((2-(((2′,6-dimethyl-[1,1′-biphenyl]-3-yl)oxy)methyl)morpholino)sulfonyl)-1H-indole-2-carboxamide] | 293 nM
19 | COc1ccc(-c2cc(OC[C@@H]3CN(S(=O)(=O)c4c(C(N)=O)[nH]c5ccc(Cl)cc45)CCO3)ccc2C)cn1 [Compound 25, (S)-5-chloro-3-((2-((3-(6-methoxypyridin-3-yl)-4-methylphenoxy)methyl)morpholino)sulfonyl)-1H-indole-2-carboxamide] | 53.3 nM
20 | NC(=O)c1[nH]c2ccc(Cl)cc2c1S(=O)(=O)N1CCO[C@H](COc2ccc(F)c(-c3cccnc3)c2)C1 [Compound 26, (S)-5-chloro-3-((2-((4-fluoro-3-(pyridin-3-yl)phenoxy)methyl)morpholino)sulfonyl)-1H-indole-2-carboxamide] | 11.2 nM
21 | NC(=O)c1[nH]c2ccc(Cl)cc2c1S(=O)(=O)N1CCO[C@H](COc2ccc(F)c(-c3cncnc3)c2)C1 [Compound 27, (S)-5-chloro-3-((2-((4-fluoro-3-(pyrimidin-5-yl)phenoxy)methyl)morpholino)sulfonyl)-1H-indole-2-carboxamide] | 4.7 nM
22 | NC(=O)c1[nH]c2ccc(Cl)cc2c1S(=O)(=O)N1CCO[C@H](COc2ccc(F)c(-c3ccncc3)c2)C1 [Compound 28, (S)-5-chloro-3-((2-((4-fluoro-3-(pyridin-4-yl)phenoxy)methyl)morpholino)sulfonyl)-1H-indole-2-carboxamide] | 6.9 nM
23 | COc1ccc(-c2cc(OC[C@@H]3CN(S(=O)(=O)c4c(C(N)=O)[nH]c5ccc(Cl)cc45)CCO3)ccc2F)cn1 [Compound 29, (S)-5-chloro-3-((2-((4-fluoro-3-(6-methoxypyridin-3-yl)phenoxy)methyl)morpholino)sulfonyl)-1H-indole-2-carboxamide] | 43.2 nM
24 | Cc1cc(-c2cc(OC[C@@H]3CN(S(=O)(=O)c4c(C(N)=O)[nH]c5ccc(Cl)cc45)CCO3)ccc2F)ccn1 [Compound 30, (S)-5-chloro-3-((2-((4-fluoro-3-(2-methylpyridin-4-yl)phenoxy)methyl)morpholino)sulfonyl)-1H-indole-2-carboxamide] | < 100 nM
25 | NC(=O)c1[nH]c2ccc(Cl)cc2c1S(=O)(=O)N1CCO[C@H](COc2ccc(-c3cccnc3)cc2)C1 [Compound 31, (S)-5-chloro-3-((2-((4-(pyridin-3-yl)phenoxy)methyl)morpholino)sulfonyl)-1H-indole-2-carboxamide] | 8.7 nM
26 | NC(=O)c1[nH]c2ccc(Cl)cc2c1S(=O)(=O)N1CCO[C@H](COc2ccc(-c3ccccc3)cc2)C1 [Compound 33, (S)-3-((2-(([1,1′-biphenyl]-4-yloxy)methyl)morpholino)sulfonyl)-5-chloro-1H-indole-2-carboxamide] | 30.2 nM
27 | CN(C)c1ccc(-c2ccc(OC[C@@H]3CN(S(=O)(=O)c4c(C(N)=O)[nH]c5ccc(Cl)cc45)CCO3)cc2)cn1 [Compound 34, (S)-5-chloro-3-((2-((4-(6-(dimethylamino)pyridin-3-yl)phenoxy)methyl)morpholino)sulfonyl)-1H-indole-2-carboxamide] | > 1000 nM
28 | NC(=O)c1[nH]c2ccc(Cl)cc2c1S(=O)(=O)N1CCO[C@H](COc2ccc(-c3ccc(C(F)(F)F)nc3)cc2)C1 [Compound 35, (S)-5-chloro-3-((2-((4-(6-(trffluoromethyl)pyridin-3-yl)phenoxy)methyl)morpholino)sulfonyl)-1H-indole-2-carboxamide] | > 1000 nM
